Consider four compounds from US20180028477A1, “TREATMENT OF CARDIAC REMODELING AND OTHER HEART CONDITIONS” (C & C BIOPHARMA, LLC, priority 2013, published 2018).

Entries after “also recorded” stand apart in the source; their conditions may differ.

The subject of data set [1] is Neonatal Rat Ventricular Myocytes (NRVMs). The data set is described as follows: Serum (FBS)-induced hypertrophy of Neonatal Rat Ventricular Myocytes in vitro. Type of data set: cell-based. To be noted: for viability: NRVMs (not shown); for order of potency for inhibitors / growth response to Fetal Bovine Serum / serum-stimulated myocyte growth (hypertrophy): NRVMs; for order of potency for inhibitors: FBS-induced growth; for growth response to Fetal Bovine Serum / serum-stimulated myocyte growth (hypertrophy): pre-treatment with a range of doses. The protocol: The cells were also treated with DMSO (light gray bars) or a vehicle (dark gray bars) as a negative control. The order of potency for inhibitors was DMSO<7MI<TSA<8MI. Viability was unchanged (not shown).
Next, the ability of 7MI and 8MI to inhibit hypertrophy in vitro was tested (FIG. 2A). […] However, fetal calf serum, which contained a rich variety of growth factors, was chosen as the most robust and multifactorial stimulus for cardiomyocyte growth available, reasoning that a similarly robust and powerful inhibitor would be required to block this hypertrophy.

A short description of data set [2]: Metabolic stability in human liver microsomes fortified with NADPH (Example 11). The format is in vitro ADME. Further details: CLint scaled: dose or concentration left out as unconfirmed. To be noted: for K (rate constant): 0.5 mg/mL human liver microsomes, 1 mM NADPH, pH 7.4, 37° C.; for Clhp (hepatic clearance) / CLint scaled / metabolic stability / clearance in the liver, in words / intrinsic clearance (Clint) rate, fold higher than 7MI / intrinsic clearance (Clint) rate, fold higher than 8MI: human liver microsomes; for CLint scaled: pH 7.4, from mono-exponential decay model, read-out: Clint (intrinsic clearance); for metabolic stability / clearance in the liver, in words: comparison of 7MI, 8MI, BML-210, TSA; for intrinsic clearance (Clint) rate, fold higher than 7MI: ratio to 7MI; for intrinsic clearance (Clint) rate, fold higher than 8MI: ratio to 8MI. The source says: Drug clearance is a measure of the ability of the body or an organ to eliminate a drug from the blood circulation. Systemic clearance is a measure of the ability of the entire body to eliminate the drug. Organ clearance is a measure of the ability of a particular organ (hepatic or renal) to eliminate the drug. For hepatic clearance, the liver is the major organ for drug metabolism and the key organ for drug clearance. Human liver microsomes (HLM) fortified with NADPH is a standard way to measure in vitro metabolism and predict in vivo clearance. CLint (intrinsic clearance) is the link between in vitro and in vivo studies, which can be estimated based on the mono-exponential decay model: Ct=C X e^−kt.
Human liver microsomes fortified with NADPH is a standard approach to evaluate metabolic stability mediated by CYP (cytochrome P450) enzymes in vitro. The reaction mixture (0.4 mL) contained 0.5 mg/mL human liver microsomes, 100 mM phosphate buffer (pH 7.4) and […] of test compounds. The mixture was first warmed up for 5 min in a 37° C. shaking water bath and then NADPH at a final concentration of 1 mM was added to initiate the reaction. Aliquots […] were taken at specified time points and mixed with ice-cold methanol (containing internal standard) to stop the reaction. The mixture was vortexed briefly and centrifuged for protein precipitation. An aliquot of […] supernatant was subject to LC-MS/MS analysis. The percentage of compound disappearance was used to calculate the rate of metabolism.
(In general: Liver microsomes are a subcellular fraction often used to study metabolism.)

A further data set has as its system HDACs. To be noted: background statement; cited from earlier work.
For data set [3] the following is noted: mice, previously reported, cited from earlier work.

In the case of `Nc1ccccc1NC(=O)CCCCCC(=O)Nc1ccc(Br)cc1` [7MI], in data set [1], the viability entry is recorded as “unchanged”, the “order of potency for inhibitors” value is recorded as “DMSO<7MI<TSA<8MI” and the “growth response to Fetal Bovine Serum / serum-stimulated myocyte growth (hypertrophy)” value was “sufficient to block myocyte hypertrophy; also recorded: depressed growth response”. Also, in data set [2], the “K (rate constant)” value amounted to 0.0027 min⁻¹, the “Clhp (hepatic clearance)” value is 2.45 mL/min/kg and the CLint scaled came to 2.78 mL/min/kg.

In the case of `O=C(CCCCCN1C(=O)c2cccc3cccc(c23)C1=O)NO` [Scriptaid], the HDAC inhibition range result with HDACs was “low nanomolar range”.

For `CC(/C=C/C(=O)NO)=C\[C@@H](C)C(=O)c1ccc(N(C)C)cc1` [TSA, Trichostatin A, reference compound], in data set [1], the viability result is recorded as “unchanged”, the “order of potency for inhibitors” value was “DMSO<7MI<TSA<8MI” and the “growth response to Fetal Bovine Serum / serum-stimulated myocyte growth (hypertrophy)” value is listed as “depressed growth response”. In data set [2], the “K (rate constant)” value worked out at 0.0088 min⁻¹; the “Clhp (hepatic clearance)” value was determined as 6.30 mL/min/kg; the “metabolic stability / clearance in the liver, in words” value was “metabolically cleared much faster than 7MI or 8MI”; the “intrinsic clearance (Clint) rate, fold higher than 7MI” value is listed as 3.2 fold. In addition, in data set [2], the “intrinsic clearance (Clint) rate, fold higher than 8MI” value turned out to be 1.9 fold and the CLint scaled is 9.05 mL/min/kg. The HDAC inhibition range entry with HDACs is “low nanomolar range”. For the same compound, the “survival at the tolerated daily dosage” value in data set [3] (1 mg/kg) is recorded as “not all of the mice survived”. For the same compound, the tolerated daily dosage in data set [3] is recorded as 1 mg/kg.

As for `Nc1ccccc1NC(=O)CCCCCCC(=O)Nc1ccccc1` [BML-210, reference compound], in data set [2], the “K (rate constant)” value worked out at 0.0116 min⁻¹; the “Clhp (hepatic clearance)” value was 7.57 mL/min/kg; the “metabolic stability / clearance in the liver, in words” value is listed as “high clearance compound”; the “intrinsic clearance (Clint) rate, fold higher than 7MI” value is 4.3 fold. In addition, in data set [2], the “intrinsic clearance (Clint) rate, fold higher than 8MI” value is 2.5 fold and the CLint scaled was determined as 11.9 mL/min/kg.
